Measured values taken from the supplement of paper PMC11208160.

assay: recombinant UMI read abundance after kanamycin selection (control-corrected) (log10(CPM+1)); higher = more efficient recombination; extreme values may be limits of the assay; sequences stand for … in AGTGCAGAGAAAATCGGCCAGTTTTCTCTGCCTGCAGTCCGCATGCCGTGGGACCCCTTGGGTTCTAACCTGTTGCCTAGATTTATGCAGCGGACTGCCTTTCTCCCAAAGTGATAAACCGG…AGGTTGGTTTCACT; site = the 11-nt donor
Experimental: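 Pooled E. coli donor-specificity screen for the IS621 bridge recombinase. Each library member carries a reprogrammed 11-nt donor and a full-length LE bridge RNA expressed in cis from the natural promoter, with a paired donor-binding loop (8-nt LDG + 4-nt RDG) and a target-binding loop fixed to T5. It is co-electroporated with a T5 target plasmid; recombinase is induced with 0.07 mM IPTG and recombinants are selected on kanamycin. UMIs are counted as CPM, averaged over two biological replicates and corrected by the unselected control. Molecule = full bridge RNA written as DNA, built from the T5 scaffold: LDG = donor specificity nt 1-8, RDG = reverse complement of nt 8-11.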
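Also: IS621 bridge recombinase in Escherichia coli cells against a fixed T5 target plasmid.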

Row | Sequence | recombinant UMI read abundance (log10)
1 | GTAGTATCATGGACCGGTTTTCCCGGTAATCCGTATTTGAT (site GTAGTATCTAT) | 3.08
2 | ATCTAAGCATGGACCGGTTTTCCCGGTAATCCGTATTTGAG (site ATCGAAGCTCT) | 0.367
3 | TGCTAGGCATGGACCGGTTTTCCCGGTAATCCGTATTTGGT (site TGGTAGGCTAC) | 0.00942
4 | GTGCATGCATGGACCGGTTTTCCCGGTAATCCGTATTTGGC (site GTGCATGCTTC) | 0.89
5 | GAATCTCCATGGACCGGTTTTCCCGGTAATCCGTATTTGAA (site GAATCTCCTTT) | 0.611
6 | TCATACTCATGGACCGGTTTTCCCGGTAATCCGTATTTGCA (site GCATACTCTTG) | 1.3
7 | TGTACACCATGGACCGGTTTTCCCGGTAATCCGTATTTGAC (site TGTAGACCTGT) | 0
8 | TGTAGTGCATGGACCGGTTTTCCCGGTAATCCGTATTTGCT (site TGTAGTGCTAG) | 1.16
9 | ACACATCCATGGACCGGTTTTCCCGGTAATCCGTATTTGAC (site ACACATGCTGT) | 0
10 | ATGAGGACATGGACCGGTTTTCCCGGTAATCCGTATTTGGG (site ATGAGGACTCC) | 0.399
11 | CATATCCCATGGACCGGTTTTCCCGGTAATCCGTATTTGAC (site CATATCCCTGT) | 0.73
12 | GTGGAGGCATGGACCGGTTTTCCCGGTAATCCGTATTTGTT (site GTGGAGGCTTA) | 0.938
13 | CCCCAGCCATGGACCGGTTTTCCCGGTAATCCGTATTTGCC (site CCCGAGCCTGG) | 0
14 | GACCAACCATGGACCGGTTTTCCCGGTAATCCGTATTTGGT (site GACGAACCTAC) | 0
15 | GAATTGCCATGGACCGGTTTTCCCGGTAATCCGTATTTGCA (site GAATAGCCTTG) | 0
16 | CGGGAGACATGGACCGGTTTTCCCGGTAATCCGTATTTGCC (site CGGGAGTCTGG) | 0.663
17 | TAGCCTTCATGGACCGGTTTTCCCGGTAATCCGTATTTGCT (site TAGCCTTCTAA) | 0.0333
18 | TGCCTTTCATGGACCGGTTTTCCCGGTAATCCGTATTTGAC (site TGCCTTTCTGT) | 0
19 | TAGTTGCCATGGACCGGTTTTCCCGGTAATCCGTATTTGCC (site TAGTTGCCTGG) | 0

Row | Sequence | recombinant UMI read abundance (log10)
20 | TGTACACCATGGACCGGTTTTCCCGGTAATCCGTATTTGAC (site CGTACACCTGT) | 0
21 | GTGGTGGCATGGACCGGTTTTCCCGGTAATCCGTATTTGTG (site GTGGGGGCTCA) | 0.0222
22 | CGATGACCATGGACCGGTTTTCCCGGTAATCCGTATTTGCT (site CGATGACCTAG) | 0
23 | ACTAGAACATGGACCGGTTTTCCCGGTAATCCGTATTTGAG (site ACTAGACCTCT) | 0.00567
24 | ATGGGAGCATGGACCGGTTTTCCCGGTAATCCGTATTTGTA (site ATGGGAGCTTA) | 2.2
25 | CCTAATCCATGGACCGGTTTTCCCGGTAATCCGTATTTGGC (site CCTAATCCTGC) | 0
26 | CTGCTACCATGGACCGGTTTTCCCGGTAATCCGTATTTGCT (site CTGCTACCTAC) | 0.00952
27 | CGGGCACCATGGACCGGTTTTCCCGGTAATCCGTATTTGCA (site TGGGCACCTTG) | 0
28 | TAGCGTTCATGGACCGGTTTTCCCGGTAATCCGTATTTGGT (site TAGCCTTCTAC) | 0.00546
29 | ACGCGGACATGGACCGGTTTTCCCGGTAATCCGTATTTGTG (site ACGCGGACTCA) | 1.74
30 | CCCCACGCATGGACCGGTTTTCCCGGTAATCCGTATTTGTA (site CCCCACTCTTA) | 0.923
31 | GCTACTTCATGGACCGGTTTTCCCGGTAATCCGTATTTGCC (site GCTACTCCTGG) | 0
32 | CTATCATCATGGACCGGTTTTCCCGGTAATCCGTATTTGCT (site CGATCATCTAG) | 0
33 | GCAGTCCCATGGACCGGTTTTCCCGGTAATCCGTATTTGCC (site GCAGTCCCTGG) | 0
34 | TGGCTAGCATGGACCGGTTTTCCCGGTAATCCGTATTTGAA (site TAGCTAGCTTT) | 0.00919
35 | GGTACACCATGGACCGGTTTTCCCGGTAATCCGTATTTGAC (site TGTACACCTGT) | 0
36 | AAAGATTCATGGACCGGTTTTCCCGGTAATCCGTATTTGTT (site CAAGATTCTAA) | 2.12
37 | CCAATATCATGGACCGGTTTTCCCGGTAATCCGTATTTGTC (site CCTATATCTGA) | 1.27
38 | ACTTGCCCATGGACCGGTTTTCCCGGTAATCCGTATTTGAT (site CCTTGCCCTAT) | 0.0521

Row | Sequence | recombinant UMI read abundance (log10)
39 | TTAGCTGCATGGACCGGTTTTCCCGGTAATCCGTATTTGAG (site TTAGCTGCTCG) | 0.0144
40 | TAAAATACATGGACCGGTTTTCCCGGTAATCCGTATTTGCA (site TAGAATACTTG) | 0
41 | ACAGTTCCATGGACCGGTTTTCCCGGTAATCCGTATTTGCC (site ACAGTTCCTGG) | 0
42 | GAGGATTCATGGACCGGTTTTCCCGGTAATCCGTATTTGTT (site GACGATTCTAA) | 0.365
43 | GAGAAGCCATGGACCGGTTTTCCCGGTAATCCGTATTTGAC (site GAGAAGCCTGT) | 0
44 | ATGGTTTCATGGACCGGTTTTCCCGGTAATCCGTATTTGTA (site ATGGTTTCTTA) | 2.68
45 | CCGAATCCATGGACCGGTTTTCCCGGTAATCCGTATTTGTT (site CAGAATCCTAA) | 0
46 | TTGTAGGCATGGACCGGTTTTCCCGGTAATCCGTATTTGGC (site CTGTAGGCTGC) | 1.59
47 | CGCACTCCATGGACCGGTTTTCCCGGTAATCCGTATTTGTT (site CGCACTCCTAA) | 0.808
48 | GGGACTACATGGACCGGTTTTCCCGGTAATCCGTATTTGAC (site AGGACTACTGT) | 0
49 | CGCGATTCATGGACCGGTTTTCCCGGTAATCCGTATTTGGC (site CGCGATTCTGC) | 1.61
50 | TGTACACCATGGACCGGTTTTCCCGGTAATCCGTATTTGAC (site TGTACACCTGG) | 0
51 | GCCACGCCATGGACCGGTTTTCCCGGTAATCCGTATTTGTA (site GCCCCGCCTTA) | 0.00659
52 | GTGCTACCATGGACCGGTTTTCCCGGTAATCCGTATTTGCT (site TTGCTACCTAG) | 0
53 | TATTTGGCATGGACCGGTTTTCCCGGTAATCCGTATTTGTG (site TAATTGGCTCA) | 0.0238
54 | ATCCAAACATGGACCGGTTTTCCCGGTAATCCGTATTTGAG (site ATCCAAACTCT) | 1.6
55 | TAGGAATCATGGACCGGTTTTCCCGGTAATCCGTATTTGCG (site TAGGAATCTTG) | 1.85
56 | CTCCCTCCATGGACCGGTTTTCCCGGTAATCCGTATTTGAG (site CTCCCTACTCT) | 0.00615
57 | TAATGCGCATGGACCGGTTTTCCCGGTAATCCGTATTTGGG (site TAATGAGCTCC) | 0.0175
